{
  "source": "paper PMC4076210",
  "about": "“Discovery of Novel AKT Inhibitors with Enhanced Anti-Tumor Effects in Combination with the MEK Inhibitor” (PLoS ONE, 2014)",
  "key": {"[1]": {"biological_target": "T1, PKCι(h) (Homo sapiens, UniProt P41743)", "T1 construct": "purchased Millipore KinaseProfiler", "T1 sequence (P41743 1-596)": "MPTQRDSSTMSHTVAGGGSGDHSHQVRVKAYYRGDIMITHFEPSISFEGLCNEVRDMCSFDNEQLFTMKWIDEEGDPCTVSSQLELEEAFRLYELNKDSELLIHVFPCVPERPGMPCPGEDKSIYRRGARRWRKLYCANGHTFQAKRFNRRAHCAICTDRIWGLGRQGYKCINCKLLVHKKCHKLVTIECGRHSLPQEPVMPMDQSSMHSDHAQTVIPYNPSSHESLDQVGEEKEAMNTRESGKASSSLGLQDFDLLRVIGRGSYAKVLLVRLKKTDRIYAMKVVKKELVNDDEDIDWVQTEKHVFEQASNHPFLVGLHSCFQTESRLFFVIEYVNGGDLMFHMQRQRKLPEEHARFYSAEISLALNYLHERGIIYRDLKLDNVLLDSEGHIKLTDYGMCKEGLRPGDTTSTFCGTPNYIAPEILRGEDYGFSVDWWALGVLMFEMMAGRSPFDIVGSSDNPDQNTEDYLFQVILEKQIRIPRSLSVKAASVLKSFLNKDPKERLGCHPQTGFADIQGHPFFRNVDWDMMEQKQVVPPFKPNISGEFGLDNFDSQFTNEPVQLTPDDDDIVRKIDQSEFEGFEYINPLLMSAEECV", "test": "Kinase panel", "type": "biochemical", "conditions": "read-out: % Inhibition"}, "[2]": {"biological_target": "T2, JNK3(h) (Homo sapiens, UniProt P53779)", "T2 construct": "purchased Millipore KinaseProfiler", "T2 sequence (P53779 whole entry)": "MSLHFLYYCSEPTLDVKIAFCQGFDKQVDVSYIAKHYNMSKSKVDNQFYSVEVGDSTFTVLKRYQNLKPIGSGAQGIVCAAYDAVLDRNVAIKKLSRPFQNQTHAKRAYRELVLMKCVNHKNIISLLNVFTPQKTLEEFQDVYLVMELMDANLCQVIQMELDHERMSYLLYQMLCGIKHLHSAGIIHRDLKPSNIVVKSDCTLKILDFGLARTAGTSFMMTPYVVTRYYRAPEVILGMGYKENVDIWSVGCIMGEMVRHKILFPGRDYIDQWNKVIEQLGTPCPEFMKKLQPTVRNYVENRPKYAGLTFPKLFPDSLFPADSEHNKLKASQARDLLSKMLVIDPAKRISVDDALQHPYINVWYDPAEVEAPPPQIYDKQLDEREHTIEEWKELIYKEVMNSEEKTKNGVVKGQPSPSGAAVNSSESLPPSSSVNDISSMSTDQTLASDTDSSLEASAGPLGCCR", "test": "Kinase panel", "type": "biochemical", "conditions": "read-out: % Inhibition"}, "[3]": {"biological_target": "T3, PAK3(h) (Homo sapiens, UniProt O75914)", "T3 construct": "purchased Millipore KinaseProfiler", "T3 sequence (O75914 whole entry)": "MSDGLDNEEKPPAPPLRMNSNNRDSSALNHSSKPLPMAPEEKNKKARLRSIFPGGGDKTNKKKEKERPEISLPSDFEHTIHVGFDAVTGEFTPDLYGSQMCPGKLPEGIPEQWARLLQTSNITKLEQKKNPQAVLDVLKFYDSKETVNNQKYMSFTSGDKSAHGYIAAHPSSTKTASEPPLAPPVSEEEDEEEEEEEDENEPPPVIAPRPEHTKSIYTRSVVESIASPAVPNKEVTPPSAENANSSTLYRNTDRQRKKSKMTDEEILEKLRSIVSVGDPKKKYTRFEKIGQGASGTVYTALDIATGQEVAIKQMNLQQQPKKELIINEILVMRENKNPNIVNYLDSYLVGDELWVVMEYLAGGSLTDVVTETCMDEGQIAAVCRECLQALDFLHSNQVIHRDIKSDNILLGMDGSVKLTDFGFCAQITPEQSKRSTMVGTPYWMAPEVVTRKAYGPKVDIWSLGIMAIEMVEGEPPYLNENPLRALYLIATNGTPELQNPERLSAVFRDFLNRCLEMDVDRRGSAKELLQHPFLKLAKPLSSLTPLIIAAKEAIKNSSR", "test": "Kinase panel", "type": "biochemical", "conditions": "read-out: % Inhibition"}, "[4]": {"biological_target": "T4, WNK3(h) (Homo sapiens, UniProt Q9BYP7)", "T4 construct": "purchased Millipore KinaseProfiler", "T4 sequence (Q9BYP7 whole entry)": "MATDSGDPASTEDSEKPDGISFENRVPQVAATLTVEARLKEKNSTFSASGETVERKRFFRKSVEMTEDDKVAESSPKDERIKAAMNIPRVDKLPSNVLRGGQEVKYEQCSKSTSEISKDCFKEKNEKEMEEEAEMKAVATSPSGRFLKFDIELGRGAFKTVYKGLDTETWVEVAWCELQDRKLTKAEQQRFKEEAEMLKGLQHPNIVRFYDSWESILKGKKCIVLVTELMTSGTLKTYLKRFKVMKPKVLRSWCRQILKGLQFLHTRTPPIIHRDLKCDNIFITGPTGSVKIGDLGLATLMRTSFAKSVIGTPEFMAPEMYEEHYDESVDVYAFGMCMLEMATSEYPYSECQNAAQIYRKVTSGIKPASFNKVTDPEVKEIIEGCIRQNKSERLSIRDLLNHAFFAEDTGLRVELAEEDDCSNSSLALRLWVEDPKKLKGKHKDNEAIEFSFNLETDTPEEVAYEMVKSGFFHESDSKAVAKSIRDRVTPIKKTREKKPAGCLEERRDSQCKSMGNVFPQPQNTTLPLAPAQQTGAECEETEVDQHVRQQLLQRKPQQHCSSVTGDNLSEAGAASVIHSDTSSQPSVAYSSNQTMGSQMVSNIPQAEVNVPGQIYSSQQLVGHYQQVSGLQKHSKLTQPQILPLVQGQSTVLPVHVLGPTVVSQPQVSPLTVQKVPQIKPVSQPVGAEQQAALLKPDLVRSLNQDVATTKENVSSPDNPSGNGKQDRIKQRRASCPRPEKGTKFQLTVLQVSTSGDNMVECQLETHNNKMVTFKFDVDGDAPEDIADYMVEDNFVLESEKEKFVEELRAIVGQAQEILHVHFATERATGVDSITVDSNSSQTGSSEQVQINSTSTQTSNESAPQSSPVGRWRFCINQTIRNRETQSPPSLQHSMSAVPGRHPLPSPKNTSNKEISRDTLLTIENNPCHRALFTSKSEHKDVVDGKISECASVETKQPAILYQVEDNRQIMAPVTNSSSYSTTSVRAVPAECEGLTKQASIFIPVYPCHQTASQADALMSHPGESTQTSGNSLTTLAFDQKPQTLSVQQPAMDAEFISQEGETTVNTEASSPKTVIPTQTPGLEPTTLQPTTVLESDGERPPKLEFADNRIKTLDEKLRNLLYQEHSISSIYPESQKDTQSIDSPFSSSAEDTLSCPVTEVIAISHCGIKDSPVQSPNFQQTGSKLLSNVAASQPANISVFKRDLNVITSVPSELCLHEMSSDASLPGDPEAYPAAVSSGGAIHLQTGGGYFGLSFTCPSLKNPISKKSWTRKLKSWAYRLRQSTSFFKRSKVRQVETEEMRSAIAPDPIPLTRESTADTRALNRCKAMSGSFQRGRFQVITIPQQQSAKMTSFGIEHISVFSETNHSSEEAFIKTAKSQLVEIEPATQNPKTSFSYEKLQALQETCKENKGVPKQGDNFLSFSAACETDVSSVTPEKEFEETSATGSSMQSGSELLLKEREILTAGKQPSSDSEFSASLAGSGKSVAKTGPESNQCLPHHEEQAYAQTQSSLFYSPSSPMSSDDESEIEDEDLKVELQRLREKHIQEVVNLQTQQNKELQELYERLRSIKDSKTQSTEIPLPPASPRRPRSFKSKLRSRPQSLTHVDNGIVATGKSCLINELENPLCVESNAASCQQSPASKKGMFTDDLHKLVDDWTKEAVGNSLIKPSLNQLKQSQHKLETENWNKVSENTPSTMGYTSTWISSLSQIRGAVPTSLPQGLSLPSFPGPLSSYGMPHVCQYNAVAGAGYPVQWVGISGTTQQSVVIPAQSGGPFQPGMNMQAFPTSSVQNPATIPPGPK", "test": "Kinase panel", "type": "biochemical", "conditions": "read-out: % Inhibition"}, "[5]": {"tested_on": "hematological tumor cell lines", "test": "3-day proliferation assay (CellTiter-Glo)", "type": "cell-based, human", "conditions": "for IC50: Homo sapiens", "in_short": "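Growth inhibition was read by CellTiter-Glo after 3 days' exposure to 0–30 µM compound and expressed against DMSO controls. EC50 was derived by 4- or 6-parameter fitting. Cells were mostly grown in RPMI plus 10% FBS, some in vendor-specified media.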"}},
  "data": [
    {"compound": "Cn1ncc(Cl)c1-c1cc(C(=O)N[C@H](CN)Cc2ccc(F)c(F)c2)oc1Cl", "note": "[GSK2141795]", "values": [
      {"measurement": "inhibition at 0.5 µM", "setting": "[1]; 0.5 µM", "result": 0, "unit": "%"},
      {"measurement": "inhibition at 10 µM", "setting": "[1]; 10 µM", "result": 43, "unit": "%"},
      {"measurement": "inhibition at 0.5 µM", "setting": "[2]; 0.5 µM", "result": -5, "unit": "%"},
      {"measurement": "inhibition at 10 µM", "setting": "[2]; 10 µM", "result": 3, "unit": "%"},
      {"measurement": "inhibition at 0.5 µM", "setting": "[3]; 0.5 µM", "result": 6, "unit": "%"},
      {"measurement": "inhibition at 10 µM", "setting": "[3]; 10 µM", "result": 28, "unit": "%"},
      {"measurement": "inhibition at 0.5 µM", "setting": "[4]; 0.5 µM", "result": -2, "unit": "%"},
      {"measurement": "inhibition at 10 µM", "setting": "[4]; 10 µM", "result": 1, "unit": "%"},
      {"measurement": "hematological cell lines sensitive (EC50<1 µM)", "setting": "[5]; 112 cell lines, 3 days, CTG", "result": 81, "unit": "%"},
      {"measurement": "IC50", "setting": "[5]; 1A2, 1A2 cell line, Burkitt's Lymphoma, B Cell", "result": 93, "unit": "nM"},
      {"measurement": "IC50", "setting": "[5]; 697 cell line, ALL, pre-B Cell", "result": 300, "unit": "nM"},
      {"measurement": "IC50", "setting": "[5]; ARH-77, ARH77 cell line, Multiple Myeloma, B Cell", "result": 155, "unit": "nM"},
      {"measurement": "IC50", "setting": "[5]; B-cell, BDCM cell line, AML, B Cell", "result": 14, "unit": "nM"},
      {"measurement": "IC50", "setting": "[5]; B-cell, CESS cell line, AML, B Cell", "result": 9, "unit": "nM"},
      {"measurement": "IC50", "setting": "[5]; B-cell, CRO-AP3 cell line, Primary Effusion Lymphoma (PEL), B Cell", "result": 113, "unit": "nM"},
      {"measurement": "IC50", "setting": "[5]; B-cell, EHEB cell line, CLL, B Cell", "result": 51, "unit": "nM"},
      {"measurement": "IC50", "setting": "[5]; B-cell, HKB-11 cell line, Burkitt's Lymphoma, B Cell", "result": 52, "unit": "nM"},
      {"measurement": "IC50", "setting": "[5]; B-cell, HS-Sultan cell line, Burkitt's Lymphoma, B Cell", "result": 226, "unit": "nM"},
      {"measurement": "IC50", "setting": "[5]; B-cell, KARPAS-231 cell line, ALL, B Cell", "result": 36, "unit": "nM"},
      {"measurement": "IC50", "setting": "[5]; B-cell, MC/CAR cell line, Multiple Myeloma, B Cell", "result": 40, "unit": "nM"},
      {"measurement": "IC50", "setting": "[5]; B-cell, MN60 cell line, ALL, B Cell", "result": 653, "unit": "nM"},
      {"measurement": "IC50", "setting": "[5]; B-cell, Namalwa cell line, Burkitt's Lymphoma, B Cell", "result": 300, "unit": "nM"},
      {"measurement": "IC50", "setting": "[5]; B-cell, SD-1 cell line, ALL, B Cell", "result": 15, "unit": "nM"},
      {"measurement": "IC50", "setting": "[5]; B-cell, Tanoue cell line, ALL, B Cell", "result": 1460, "unit": "nM"},
      {"measurement": "IC50", "setting": "[5]; BC1, BC1 cell line, Burkitt's Lymphoma, B Cell", "result": 465, "unit": "nM"},
      {"measurement": "IC50", "setting": "[5]; BC-3, BC3 cell line, Burkitt's Lymphoma, B Cell", "result": 3130, "unit": "nM"},
      {"measurement": "IC50", "setting": "[5]; BV-173, BV173 cell line, CML, pre-B Cell", "result": 860, "unit": "nM"},
      {"measurement": "IC50", "setting": "[5]; CA46, CA46 cell line, Burkitt's Lymphoma, B Cell", "result": 948, "unit": "nM"},
      {"measurement": "IC50", "setting": "[5]; CCRF-CEM, CCRFCEM cell line, ALL, T Cell", "result": 146, "unit": "nM"},
      {"measurement": "IC50", "setting": "[5]; CCRF-SB, CCRFSB cell line, ALL, B Cell", "result": 20, "unit": "nM"},
      {"measurement": "IC50", "setting": "[5]; CEM/C1, CEM/C1 cell line, ALL, T Cell", "result": 30, "unit": "nM"},
      {"measurement": "IC50", "setting": "[5]; CEM/C2, CEM/C2 cell line, ALL, T Cell", "result": 22, "unit": "nM"},
      {"measurement": "IC50", "setting": "[5]; CML-T1, CML-T1 cell line, CML, T Cell", "result": 5230, "unit": "nM"},
      {"measurement": "IC50", "setting": "[5]; CRO-AP5, CRO-AP5 cell line, Primary Effusion Lymphoma (PEL), B Cell", "result": 34, "unit": "nM"},
      {"measurement": "IC50", "setting": "[5]; DB, DB cell line, Non-Hodgkin's Lymphoma, B Cell", "result": 5220, "unit": "nM"},
      {"measurement": "IC50", "setting": "[5]; DG-75, DG75 cell line, Burkitt's Lymphoma, B Cell", "result": 14800, "unit": "nM"},
      {"measurement": "IC50", "setting": "[5]; DOHH-2, DOHH-2 cell line, Non-Hodgkin's Lymphoma, B Cell", "result": 10.5, "unit": "nM"},
      {"measurement": "IC50", "setting": "[5]; Daudi, DAUDI cell line, Burkitt's Lymphoma, B Cell", "result": 269, "unit": "nM"},
      {"measurement": "IC50", "setting": "[5]; EB1, EB1 cell line, Burkitt's Lymphoma, B Cell", "result": 49, "unit": "nM"},
      {"measurement": "IC50", "setting": "[5]; EB2, EB2 cell line, Burkitt's Lymphoma, B Cell", "result": 256, "unit": "nM"},
      {"measurement": "IC50", "setting": "[5]; EB-3, EB3 cell line, Burkitt's Lymphoma, B Cell", "result": 1760, "unit": "nM"},
      {"measurement": "IC50", "setting": "[5]; EM-2, EM2 cell line, CML, Unspecified", "result": 1650, "unit": "nM"},
      {"measurement": "IC50", "setting": "[5]; Farage cell line, Non-Hodgkin's Lymphoma, B Cell", "result": 103, "unit": "nM"},
      {"measurement": "IC50", "setting": "[5]; GA-10, GA-10 cell line, Burkitt's Lymphoma, B Cell", "result": 17, "unit": "nM"},
      {"measurement": "IC50", "setting": "[5]; GDM-1, GDM-1 cell line, AML, Monoblast", "result": 3070, "unit": "nM"},
      {"measurement": "IC50", "setting": "[5]; HD-MY-Z cell line, Hodgkin's Lymphoma, Unspecified", "result": 8290, "unit": "nM"},
      {"measurement": "IC50", "setting": "[5]; HEL 92.1.7, HEL92.1.7 cell line, AML, Erythroleukemia", "result": 7760, "unit": "nM"},
      {"measurement": "IC50", "setting": "[5]; HH, HH cell line, Non-Hodgkin's Lymphoma (CTCL), T Cell", "result": 85, "unit": "nM"},
      {"measurement": "IC50", "setting": "[5]; HL-60, HL-60 cell line, AML, Myeloblast", "result": 3720, "unit": "nM"},
      {"measurement": "IC50", "setting": "[5]; HSB2, HSB2 cell line, ALL, T Cell", "result": 576, "unit": "nM"},
      {"measurement": "IC50", "setting": "[5]; HT, HT cell line, Burkitt's Lymphoma, B Cell", "result": 93, "unit": "nM"},
      {"measurement": "IC50", "setting": "[5]; HuT78, HuT78 cell line, Non-Hodgkin's Lymphoma (CTCL), T Cell", "result": 147, "unit": "nM"},
      {"measurement": "IC50", "setting": "[5]; J.gamma1, J.Gamma-1 cell line, ALL, T Cell", "result": 21, "unit": "nM"},
      {"measurement": "IC50", "setting": "[5]; JIYOYE, JIYOYE cell line, Burkitt's Lymphoma, B Cell", "result": 536, "unit": "nM"},
      {"measurement": "IC50", "setting": "[5]; JM1, JM1 cell line, Burkitt's Lymphoma, pre-B Cell", "result": 212, "unit": "nM"},
      {"measurement": "IC50", "setting": "[5]; JVM13, JVM13 cell line, CLL, B Cell", "result": 84, "unit": "nM"},
      {"measurement": "IC50", "setting": "[5]; JVM-2, JVM2 cell line, CLL, B Cell", "result": 13, "unit": "nM"},
      {"measurement": "IC50", "setting": "[5]; JVM-3, JVM-3 cell line, CLL, B Cell", "result": 8480, "unit": "nM"},
      {"measurement": "IC50", "setting": "[5]; Jurkat, Jurkat cell line, ALL, T Cell", "result": 17, "unit": "nM"},
      {"measurement": "IC50", "setting": "[5]; K562, K562 cell line, CML, Lymphoblast", "result": 9780, "unit": "nM"},
      {"measurement": "IC50", "setting": "[5]; KG-1, KG-1 cell line, AML, B Cell", "result": 281, "unit": "nM"}
    ]}
  ]
}
